Patent publication US20190275040A1, “COMPOUNDS AND METHODS FOR TREATING OR PREVENTING ALZHEIMER'S DISEASE” (YALE UNIVERSITY, priority 2016, published 2019)
pKi: −log10 of the molar value. Like-named read-outs stand apart in the source and are kept apart here.

How the values were obtained:
Pyk2 [1] = target: T1, Pyk2 (Homo sapiens, UniProt Q14289); assay: Luciferase-based (ADP-Glo) PYK2 kinase assay; format: biochemical
Experimental: Enzyme, substrate, ATP and inhibitors are diluted in Tyrosine Kinase Buffer. […] The resulting system is incubated at room temperature for 60 minutes. 5 μl of ADP-GLO™ Reagent are added. […] 10 μl of Kinase Detection Reagent are added. […] Luminescence is recorded (Integration time 0.5-1 second).

[2] = tested on: cultured mouse hippocampal neurons; assay: GFP-Pyk2 overexpression-induced dendritic spine loss in cultured hippocampal neurons; format: cell-based; details: PF-719 1 μM; Y27632 10 μM; DIV 17-21
Source text: FIG. 7A: TBS-T soluble human Alzheimer's disease brain extracts were immunoblotted with anti-Pyk2 or anti-pY402 Pyk2 specific antibodies. FIG. 7B: Densitometric analysis of the immunoblots from FIG. A. p-Pyk2/Pyk2 ratio values were normalized to control mean value. Data are graphed as mean±SEM (Control, n=10; AD, n=10). *p<0.05 by Student's two-tailed t test. FIG. 7C: Representative immunofluorescent images of Pyk2 immunoreactivity from hippocampal CA1 in WT and Pyk2 null mice at 12-months age. […] FIG. 7D: Hek293T cells were co-transfected with either control vector or flag-tagged Fyn and GFP-tagged Pyk2 or K457A kinase dead mutant. Lysates were immunoblotted with anti-GFP (for GFP tagged Pyk2 and K457A mutant), anti-Fyn, and anti-pSFK antibodies. FIG. 7E: Representative GFP fluorescent images of cultured mouse hippocampal neurons. […] FIG. 7G: Quantification of dendritic spine density in the transfected neurons.
FIG. 10A: GST-RBD pull-down assay from Hek293T cell lysate from cells expressing indicated plasmids. […] FIG. 10B: Levels of RhoA-GTP (RBD pull-down) and RhoA-total (5% lysate) were quantified by densitometric measurement. […] FIG. 10D: Quantification of RhoA-GTP/total RhoA ratio by densitometric analysis. […] FIG. 10E: Representative GFP fluorescence images of the cultured hippocampal neurons. […] FIG. 10F: Quantification of dendritic spine density. […]

Pyk2 [3] = target: T1, Pyk2; details: cited from earlier work
[4] = tested on: primary hippocampal neurons; assay: Aβo-dependent dendritic spine loss in primary hippocampal neurons; format: cell-based, mouse; details: Aβo for 4 days
Source text: FIGS. 11A-11H illustrate the finding that Aβo-induced dendritic spine deficits are prevented by deletion of Pyk2 and RhoA inhibition in primary neurons. FIG. 11A: Representative images of dendritic spine motility by standard deviation projection of time-lapse image. […] The standard deviation value for each pixel is shown by thermal color scale. Scale bar, 10 μm. FIG. 11B: Quantification of spine motility, expressed as % of changed area of spines with subtraction of changed area of dendritic shaft as background (changed area=(ΔAspine/Aspine×100)−(ΔAshaft/Ashaft×100)). […]
It was considered whether the acute effects of Aβo-induced, Pyk2-mediated decrease on spine motility might be translated into alteration in spine number over longer time periods. Dendritic spine density was measured in populations of vehicle and Aβo treated primary hippocampal neuron cultures. […]
Analysis and quantification of data were performed with Volocity software after max intensity projection. The numbers of dendritic spines were counted manually to estimate the density of primary or secondary dendritic branch by observer unaware of drug or genotype. For each condition, at least 3 dendrites were measured from each neuron and 5-7 neurons were imaged per coverslip. […]

Pyk2 activation (p-Pyk2) = assay: Pyk2 activation and Aβo-induced signaling in cells; format: cell-based; details: 500 nM
Experimental: In brain slices and in dissociated primary neuronal cultures, Aβo causes Fyn activation, Pyk2 activation, altered Glu-induced calcium signaling, dendritic spine loss and suppression of LTP. […] After developing LC/MS/MS methods to detect PF-719, the extent to which the Pyk2 inhibitor enters brain from peripheral dosing was determined. […] Continuous 25 mg/kg/d minipump i.p. infusion was chosen for treatment of APP/PS1 mice.

T1 sequence (Q14289 whole entry, species assumed): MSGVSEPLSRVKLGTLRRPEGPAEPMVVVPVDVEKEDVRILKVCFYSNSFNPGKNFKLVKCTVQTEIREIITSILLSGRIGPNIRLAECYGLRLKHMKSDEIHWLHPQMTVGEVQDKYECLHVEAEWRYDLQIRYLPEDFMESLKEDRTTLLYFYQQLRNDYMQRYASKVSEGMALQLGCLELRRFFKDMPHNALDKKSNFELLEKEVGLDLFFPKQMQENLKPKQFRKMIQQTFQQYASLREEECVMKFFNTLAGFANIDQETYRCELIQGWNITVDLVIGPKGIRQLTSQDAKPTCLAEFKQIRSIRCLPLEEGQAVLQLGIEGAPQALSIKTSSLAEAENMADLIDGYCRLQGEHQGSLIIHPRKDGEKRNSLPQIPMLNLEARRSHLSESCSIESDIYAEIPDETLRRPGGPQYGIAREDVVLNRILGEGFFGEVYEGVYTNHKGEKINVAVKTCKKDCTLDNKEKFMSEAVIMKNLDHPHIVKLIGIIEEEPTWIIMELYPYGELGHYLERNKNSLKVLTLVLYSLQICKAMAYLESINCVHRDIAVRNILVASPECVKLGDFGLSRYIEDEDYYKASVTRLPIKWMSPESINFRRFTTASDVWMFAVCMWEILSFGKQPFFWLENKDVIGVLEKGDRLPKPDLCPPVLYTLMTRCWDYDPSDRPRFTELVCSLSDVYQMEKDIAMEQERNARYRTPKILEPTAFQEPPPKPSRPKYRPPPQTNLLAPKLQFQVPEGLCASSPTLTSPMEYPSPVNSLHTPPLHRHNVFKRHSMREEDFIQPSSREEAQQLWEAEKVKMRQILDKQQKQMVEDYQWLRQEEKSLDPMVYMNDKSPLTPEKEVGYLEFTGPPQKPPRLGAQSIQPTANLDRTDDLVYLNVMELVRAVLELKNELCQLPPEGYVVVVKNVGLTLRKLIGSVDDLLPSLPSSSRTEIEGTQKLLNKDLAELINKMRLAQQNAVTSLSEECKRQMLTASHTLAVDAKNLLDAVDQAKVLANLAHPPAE

Question: Which results are given for CCOc1ccc2nc(SCc3nc(N)nc(N4CCOCC4)n3)sc2c1 [PF-719, 4-(((6-ethoxybenzo[d]thiazol-2-yl)thio)methyl)-6-morpholino-1,3,5-triazin-2-amine]?
Answer: Pyk2 inhibition in luciferase-based biochemical assay (Pyk2 [1]): confirm the respective specificities; GFP-Pyk2-induced spine loss [2]: partial rescue; pKi (Pyk2 [3]; isolated Pyk2, read-out: Ki for isolated Pyk2): 7.82; pKi (Pyk2 [3]; read-out: Pyk2 Ki): 8.00; Aβo dependent spine loss [4]: rescue fully Aβo dependent spine loss; baseline Pyk2 activation and Aβo-induced signaling in cells (Pyk2 activation (p-Pyk2)): blocked baseline Pyk2 activation and Aβo-induced signaling
